Laboratory results: patent US20100267712A1, “ISOINDOLINE COMPOUNDS FOR THE TREATMENT OF SPINAL MUSCULAR ATROPHY AND OTHER USES” (The United States of America, as represented by the …, priority 2007, published 2010)
pEC50: −log10 of the molar value. Counter-ions that a name gives are not always drawn.

Tests used:
[1] = tested on: SMN2-linked luciferase-reporter gene construct; assay: SMN Splice Reporter Assay (SMN2-linked luciferase reporter); format: cell-based; conditions: for pEC50: cervical carcinoma cell lines, SMN2 splice luciferase reporter; for Fold Increase: fold-increase of luciferase over baseline reading of transformed cells without any test compound
How it was run: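 Cervical carcinoma cells carrying an SMN2-luciferase splicing reporter, in-frame only with exon 7 inclusion, were treated with compound. Luciferase activity reported as fold increase over untreated transformed cells, with EC50 derived.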

[2] = tested on: translational stop codon read-through, human SMN2 open reading frame-luciferase; assay: Translational read-through luciferase reporter assay (luciferase preceded by the open reading frame of the human SMN2 gene); format: cell-based
Text: This assay was similar in design to that described in WO 01/44516 A2. This was a cell-based luciferase reporter assay designed to detect translational read-through via insertion of a translational stop codon within the coding sequence that includes luciferase. In the presence of compounds that promote read-through of translational stop codons, active luciferase was produced and detected via chemiluminescence. Compounds of the invention typically were active in three versions of this assay: luciferase reporter containing a UGA stop codon, luciferase reporter containing a UAG stop codon, which is the first stop codon downstream of the improper splice junction between exons 6 and 8 in the human SMN2 transcript, and luciferase preceded by the open reading frame of the human SMN2 gene.

Row | SMILES | melting point | pEC50 [1] | Fold Increase [1] | pEC50 [2] | maximal fold induction [2]
1 | COc1ccc2c(c1)C(=O)N(c1ccc3cnn(C)c3c1)C2 | 175 to 177 °C | – | – | – | –
2 | COc1ccc2c(c1)C(=O)N(c1ccc3ccn(CCN)c3c1)C2 (as salt: hydrochloride) [Example 23, 2-(1-(2-aminoethyl)-1H-indol-6-yl)-6-methoxyisoindolin-1-one hydrochloride] | 280 to 282 °C (dec.) | – | – | – | –
3 | COc1ccc2c(c1)C(=O)N(c1ccc3c(ccn3C)c1)C2 [Example 1, 6-methoxy-2-(1-methyl-1H-indol-5-yl)isoindolin-1-one] | 193 to 197 °C | – | – | – | –
4 | Cn1ccc2cc(N3Cc4ccc(OC(F)F)cc4C3=O)ccc21 [Example 2, 6-(difluoromethoxy)-2-(1-methyl-1H-indol-5-yl)isoindolin-1-one] | 180 to 182 °C | – | – | – | –
5 | Cn1ccc2cc(N3Cc4ccc(OC(F)(F)Br)cc4C3=O)ccc21 [Example 3, 6-(bromodifluoromethoxy)-2-(1-methyl-1H-indol-5-yl)isoindolinl-one] | 185 to 186 °C | – | – | – | –
6 | Cn1ccc2cc(N3Cc4ccc(OC(F)(F)C(F)Cl)cc4C3=O)ccc21 (centres unmarked) [Example 4, 6-(2-chloro-1,1,2-trifluoroethoxy)-2-(1-methyl-1H-indol-5-yl)isoindolin-1-one] | 200 to 205 °C | – | – | – | –
7 | Cn1ccc2cc(N3Cc4ccc(O)cc4C3=O)ccc21 [Example 5, 6-hydroxy-2-(1-methyl-1H-indol-5-yl)isoindolin-1-one] | 230 to 235 °C | – | – | – | –
8 | CCOc1ccc2c(c1)C(=O)N(c1ccc3c(ccn3C)c1)C2 [Example 6, 6-ethoxy-2-(1-methyl-1H-indol-5-yl)isoindolin-1-one] | 185 to 190 °C | – | – | – | –
9 | Cn1ccc2cc(N3Cc4ccc(OCC(F)(F)F)cc4C3=O)ccc21 [Example 7, 2-(1-methyl-1H-indol-5-yl)-6-(2,2,2-trifluoroethoxy)isoindolin-1-one] | 182 to 188 °C | – | – | – | –
10 | CC(=O)Nc1ccc2c(c1)C(=O)N(c1ccc3c(ccn3C)c1)C2 [Example 8, N-(2-(1-methyl-1H-indol-5-yl)-3-oxoisoindolin-5-yl)acetamide] | 275 to 280 °C | – | – | – | –
11 | Cn1ccc2cc(N3Cc4c(N)cccc4C3=O)ccc21 [Example 9, 4-amino-2-(1-methyl-1H-indol-5-yl)isoindolin-1-one] | 198 to 203 °C | – | – | – | –
12 | CC(=O)Nc1cccc2c1CN(c1ccc3c(ccn3C)c1)C2=O [Example 10, N-(2-(1-methyl-1H-indol-5-yl)-1-oxoisoindolin-4-yl)acetamide] | 239 to 243 °C | – | – | – | –
13 | Cn1ccc2cc(N3Cc4ccc(Br)cc4C3=O)ccc21 [Example 11, 6-bromo-2-(1-methyl-1H-indol-5-yl)isoindolin-1-one] | 235 to 237 °C | – | – | – | –
14 | CC(C)Cc1ccc2c(c1)C(=O)N(c1ccc3c(ccn3C)c1)C2 [Example 12, 6-isobutyl-2-(1-methyl-1H-indol-5-yl)isoindolin-1-one] | 193 to 194 °C | – | – | – | –
15 | CCCCc1ccc2c(c1)C(=O)N(c1ccc3c(ccn3C)c1)C2 [Example 13, 6-butyl-2-(1-methyl-1H-indol-5-yl)isoindolin-1-one] | 167 to 168 °C | – | – | – | –
16 | C/C=C(/C)c1ccc2c(c1)C(=O)N(c1ccc3c(ccn3C)c1)C2 [Example 14, (Z)-6-(but-2-en-2-yl)-2-(1-methyl-1H-indol-5-yl)isoindolin-1-one] | 144 to 145 °C | – | – | – | –
17 | CCC(C)c1ccc2c(c1)C(=O)N(c1ccc3c(ccn3C)c1)C2 (centres unmarked) [Example 15, 6-sec-butyl-2-(1-methyl-1H-indol-5-yl)isoindolin-1-one] | 146 to 147 °C | – | – | – | –
18 | Cn1ccc2cc(N3Cc4ccc(N5CCCC5)cc4C3=O)ccc21 [Example 16, 2-(1-methyl-1H-indol-5-yl)-6-(pyrrolidin-1-yl)isoindolin-1-one] | 252 to 253 °C | – | – | – | –
19 | COc1ccc2c(c1)C(=O)N(c1ccc3c(ccn3C(C)C)c1)C2 [Example 17, 2-(1-isopropyl-1H-indol-5-yl)-6-methoxyisoindolin-1-one] | 144 to 148 °C | – | – | – | –
20 | COc1ccc2c(c1)C(=O)N(c1ccc3c(c1)cc(C)n3C)C2 [Example 18, 2-(1,2-dimethyl-1H-indol-5-yl)-6-methoxyisoindolin-1-one] | 209 to 213 °C | – | – | – | –
21 | COc1ccc2c(c1)CN(c1ccc3c(ccn3C)c1)C2 [Example 19, 5-(5-methoxyisoindolin-2-yl)-1-methyl-1H-indole] | 193 to 196 °C | – | – | – | –
22 | COc1ccc2c(c1)C(=O)N(c1ccc3ccn(C)c3c1)C2 [Example 20, 6-methoxy-2-(1-methyl-1H-indol-6-yl)isoindolin-1-one] | 158 to 161 °C | – | – | – | –
23 | CC(=O)Nc1cccc2c1CN(c1ccc3ccn(C)c3c1)C2=O [Example 21, N-(2-(1-methyl-1H-indol-6-yl)-1-oxoisoindolin-4-yl)acetamide] | 180 to 184 °C | – | – | – | –
24 | COc1ccc2c(c1)C(=O)N(c1ccc3ccn(CC#N)c3c1)C2 [Example 22, 2-(6-(6-methoxy-1-oxoisoindolin-2-yl)-1H-indol-1-yl)acetonitrile] | 218 to 220 °C | – | – | – | –

Row | SMILES | melting point | pEC50 [1] | Fold Increase [1] | pEC50 [2] | maximal fold induction [2]
25 | Cn1ccc2ccc(N3Cc4ccc(-c5cccnc5)cc4C3=O)cc21 [Example 24, 2-(1-methyl-1H-indol-6-yl)-6-(pyridin-3-yl)isoindolin-1-one] | 187 to 188 °C | – | – | – | –
26 | COc1ccc2c(c1)CN(c1ccc3sccc3c1)C2=O [Example 25, 2-(benzo[b]thiophen-5-yl)-5-methoxyisoindolin-1-one] | 183 to 186 °C | – | – | – | –
27 | O=C1c2cc(O)ccc2CN1c1ccc2sccc2c1 [Example 26, 2-(benzo[b]thiophen-5-yl)-6-hydroxyisoindolin-1-one] | 226 to 228 °C | – | – | – | –
28 | CCOc1ccc2c(c1)C(=O)N(c1ccc3sccc3c1)C2 [Example 27, 2-(benzo[b]thiophen-5-yl)-6-ethoxyisoindolin-1-one] | 127 to 129 °C | – | – | – | –
29 | Nc1ccc2c(c1)C(=O)N(c1ccc3ccsc3c1)C2 [Example 29, 6-amino-2-(benzo[b]thiophen-6-yl)isoindolin-1-one] | 233 to 236 °C | – | – | – | –
30 | CN(C)c1ccc2c(c1)C(=O)N(c1ccc3ccsc3c1)C2 [Example 30, 2-(benzo[b]thiophen-6-yl)-6-(dimethylamino)isoindolin-1-one] | 195 to 197 °C | – | – | – | –
31 | CN(C)c1ccc2c(c1)C(=O)N(c1ccc3c(c1)CCN3C)C2 [Example 31, 6-(dimethylamino)-2-(1-methylindolin-5-yl)isoindolin-1-one] | 268 to 270 °C | – | – | – | –
32 | COc1ccc2c(c1)C(=O)N(c1ccc3ncccc3c1)C2 [Example 32, 6-methoxy-2-(quinolin-6-yl)isoindolin-1-one] | 194 to 197 °C | – | – | – | –
33 | COc1ccc2c(c1)C(=O)N(c1ccc3c(ccc[n+]3[O-])c1)C2 [Example 33, 6-(6-methoxy-1-oxoisoindolin-2-yl)quinoline 1-oxide] | 251 to 255 °C | – | – | – | –
34 | COc1ccc2c(c1)C(=O)N(c1ccc3c(cnn3C)c1)C2 [Example 120600] | – | 7.23 | 1.312 | 5.31 | 1.83
35 | COc1ccc2c(c1)C(=O)N(c1ccc3[nH]ncc3c1)C2 [Example 120601] | – | – | 1.059 | 4.81 | 1.65
36 | COc1ccc2c(c1)C(=O)N(c1ccc3cnn(C)c3c1)C2 [Example 120604] | – | 6.38 | 1.441 | 5.10 | 1.65
37 | COc1ccc2c(c1)C(=O)N(c1ccc3nccnc3c1)C2 [Example 120791] | – | 7.15 | 1.372 | 6.19 | 1.91
38 | COc1ccc2c(c1)C(=O)N(c1ccc3nccn3c1)C2 [Example 120955] | – | 5.80 | 1.265 | 4.85 | 1.66
39 | CC(C)n1ccc2cc(N3Cc4ccc(OC(F)F)cc4C3=O)ccc21 [Example 121259] | – | – | 1.166 | 7.49 | 1.03
40 | COc1ccc2c(c1)C(=O)N(c1ccc3nc(C)ncc3c1)C2 [Example 121924] | – | 5.87 | 1.489 | 5.58 | 1.66
41 | CC(=O)Nc1ccc2c(c1)C(=O)N(c1ccc3c(ccn3C)c1)C2 [Example 122435] | – | 6.84 | 1.412 | 5.89 | 1.98
42 | COc1ccc2c(c1)C(=O)N(c1ccc3sc(C)cc3c1)C2 [Example 122685] | – | 7.62 | 1.251 | 6.18 | 1.87
43 | Cc1cc2cc(N3Cc4ccc(Br)cc4C3=O)ccc2n1C [Example 122818] | – | 6.68 | 1.551 | 4.89 | 1.81
44 | Cc1cc2cc(N3Cc4ccc(N5CCCC5)cc4C3=O)ccc2n1C [Example 123330] | – | – | 1.113 | – | 1.4
45 | Cc1cc2cc(N3Cc4ccc(OC(C)C)cc4C3=O)ccc2n1C [Example 123934] | – | 7.20 | 1.554 | 4.01 | 1.3
46 | CC(C)n1ccc2cc(N3Cc4ccc(Cl)cc4C3=O)ccc21 [Example 125094] | – | 8.05 | 1.256 | – | 1.16
47 | CC(C)n1ccc2cc(N3Cc4ccc(Br)cc4C3=O)ccc21 [Example 125270] | – | 7.80 | 1.446 | – | 1.19
